Assay results taken from patent publication US20140255402A1 (priority 2013, published 2014).

Tested on: NALM/6 cells
Parameters: species or system mice
Conditions: mouse, in vivo

Nc1ccn([C@@H]2O[C@H](CO)[C@@H](O)[C@@H]2O)c(=O)n1 [Ara-C, Cytarabine]
Survival difference as compared to placebo: no significant survival difference
